What was measured:
Caspase-7 = target: T1, Caspase-7 (Homo sapiens, UniProt P55210); experiment: Inhibition of human recombinant caspase-7 using Ac-DEVD-AMC as substrate assessed as accumulation of AMC preincubated for 10 mins followed by substrate addition measured after 10 mins by fluorescence assay
T1 sequence (P55210 whole entry): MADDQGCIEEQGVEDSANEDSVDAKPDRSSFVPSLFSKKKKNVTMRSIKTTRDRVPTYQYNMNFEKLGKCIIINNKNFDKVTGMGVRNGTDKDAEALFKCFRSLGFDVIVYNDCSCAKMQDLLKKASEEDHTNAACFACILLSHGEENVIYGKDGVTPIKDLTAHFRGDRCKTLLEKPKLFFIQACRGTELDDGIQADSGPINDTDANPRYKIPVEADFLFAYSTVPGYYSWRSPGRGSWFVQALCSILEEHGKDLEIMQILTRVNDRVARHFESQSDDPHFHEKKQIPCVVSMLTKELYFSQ

Caspase-3 = target: T2, Caspase-3 (Homo sapiens, UniProt P42574); experiment: Inhibition of human recombinant caspase-3 using Ac-DEVD-AMC as substrate assessed as accumulation of AMC preincubated for 10 mins followed by substrate addition measured after 10 mins by fluorescence assay
T2 sequence (P42574 whole entry): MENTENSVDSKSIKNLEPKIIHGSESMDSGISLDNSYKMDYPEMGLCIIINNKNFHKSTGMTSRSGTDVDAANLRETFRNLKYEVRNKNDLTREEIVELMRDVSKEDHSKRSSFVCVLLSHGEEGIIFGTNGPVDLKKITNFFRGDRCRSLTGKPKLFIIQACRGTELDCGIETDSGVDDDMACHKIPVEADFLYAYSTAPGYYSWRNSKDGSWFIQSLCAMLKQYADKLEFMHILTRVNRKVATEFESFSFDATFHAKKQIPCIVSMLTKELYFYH

Row | Structure (SMILES) | IC50 (Caspase-7) [µM] | IC50 (Caspase-3) [µM]
1 | COC[C@@H]1C[C@@H](OC)CN1S(=O)(=O)c1ccc2c(c1)C(=O)C(=O)N2 | > 500 | > 500
2 | COC[C@@H]1C[C@H](OC)CN1S(=O)(=O)c1ccc2c(c1)C(=O)C(=O)N2 | > 500 | > 500
3 | COC[C@@H]1C[C@@H](OCCOCCOCCOCCO)CN1S(=O)(=O)c1ccc2c(c1)C(=O)C(=O)N2 | > 500 | > 500
4 | COC[C@@H]1C[C@H](OCCOCCOCCOCCO)CN1S(=O)(=O)c1ccc2c(c1)C(=O)C(=O)N2 | > 500 | > 500
5 | CCCCN1C(=O)C(=O)c2cc(S(=O)(=O)N3C[C@@H](OCCOCCOCCOCCO)C[C@H]3COC)ccc21 | > 500 | > 500
6 | COC[C@@H]1C[C@@H](C(F)(F)F)CN1S(=O)(=O)c1ccc2c(c1)C(=O)C(=O)N2 | > 500 | > 500
7 | COC[C@@H]1C[C@H](C(F)(F)F)CN1S(=O)(=O)c1ccc2c(c1)C(=O)C(=O)N2 |  | 101
8 | COC[C@H]1CC[C@@H](COC)N1S(=O)(=O)c1ccc2c(c1)C(=O)C(=O)N2 | > 500 | > 500
9 | COC[C@@H]1CC[C@@H](COC)N1S(=O)(=O)c1ccc2c(c1)C(=O)C(=O)N2 | > 500 | > 500

Reference: ChEMBL document CHEMBL2390880, “Influence of 4- or 5-substituents on the pyrrolidine ring of 5-[1-(2-methoxymethylpyrrolidinyl)sulfonyl]isatin derivatives on their inhibitory activities towards caspases-3 and -7” (Eur J Med Chem, 2013)
